The source of these data is patent US20260206761A1, “HETEROARYL-TRIAZOLE COMPOUNDS AS PESTICIDES” (Bayer Aktiengesellschaft, priority 2019, published 2026).

What all share (type): in vivo
Test [1] deals with adult cat fleas (Ctenocephalides felis). Nature of the test: Ctenocephalides felis in-vitro contact test, adult cat flea. As to conditions: application rate 5 μg/cm^2 (=500 g/ha), after 48 hours, read-out: activity (efficacy: fleas dead or moribund). As to the method: Ctenocephalides felis—In-Vitro Contact Tests Adult Cat Flea
9 mg compound is solved in 1 mL acetone and diluted with acetone to the desired concentration. 250 μL of the test solution is filled in 25 mL glass test tubes and homogeneously distributed on the inner walls by rotation and tilting on a shaking device (2 h at 30 rpm). With a compound concentration of 900 ppm, an inner surface of 44.7 cm^2 and a homogeneous distribution, a dose of […] is achieved.
After the solvent has evaporated, each test tube is filled with 5-10 adult cat fleas (Ctenocephalides felis), closed with a perforated lid and incubated in a lying position at room temperature and relative humidity. After 48 hours efficacy is determined. The fleas are patted on the ground of the tubes and are incubated on a heating plate at 45-50° C. for at most 5 minutes. Immotile or uncoordinated moving fleas, which are not able to escape the heat by climbing upwards, are marked as dead or moribund.
An efficacy of 100% means all fleas are dead or moribund; 0% means no fleas are dead or moribund.

Test [2] relates to larvae of the southern green stink bug (Nezara viridula). The test is described as follows: Nezara viridula spray test. The note with it: 96 h, after 4 days; for mortality at 100 g/ha: application rate 100 g/ha; for mortality at 500 g/ha: application rate 500 g/ha. In a few lines: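 Compound in acetone/dimethylformamide, diluted in water with 1000 ppm alkylarylpolyglycol ether emulsifier, sprayed onto barley plants carrying stink bug larvae. Mortality (%) scored after 4 days, 100% meaning all insects killed.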

In test [3] the test system is adult engorged female ticks (Rhipicephalus microplus). The test is described as follows: Rhipicephalus (Boophilus) microplus injection test. As to conditions: 168 h, egg deposition after 7 days, read-out: activity (efficacy: infertile eggs); for pest or weed control at 4 pg: application rate 4 pg/animal; for pest or weed control at 0.02 mg: application rate 20 μg/animal. In a few lines: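 Efficacy is scored from egg fertility, with 100% meaning every egg infertile and 0% every egg fertile. Five engorged females per test received 1 μL DMSO solution abdominally. Eggs of unclear fertility were kept until hatching, about 42 days.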

For test [4], the system named is green peach aphid (Myzus persicae). The test is described as follows: Myzus persicae oral test. The note with it: 120 h, application rate 4 ppm, after 5 days. The method in brief: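 Acetone stock (1 pbw compound/100 pbw solvent) diluted in water; mixed with sugar-supplemented IPL41 medium; parafilm-sealed; mixed aphid population sucks through film; mortality % read at 5 d.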

For test [5], the system named is larvae of the banded cucumber beetle (Diabrotica balteata). The test is described as follows: Diabrotica balteata spray test. As to conditions: 168 h, after 7 days, read-out: activity (efficacy: seedlings grown); for pest or weed control at 100 g/ha: application rate 100 g/ha (=32 pg/well); for pest or weed control at 500 g/ha: application rate 500 g/ha (=160 pg/well). In a few lines: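 Wheat seedlings, germinated 1 day on agar (5 seeds/well), sprayed with active compound in acetone/DMF diluted in water containing 1000 ppm emulsifier, then infested with 10-20 D. balteata larvae. Efficacy (%) scored after 7 days: 100% = seedlings grown as untreated uninfested control, 0% = no seedlings grown.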

The test system of test [6] is adult unfed cat fleas (Ctenocephalides felis). Nature of the test: Ctenocephalides felis oral test. The note with it: 48 h, read-out: activity (mortality). The method in brief:
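About 20 adult unfed fleas fed through parafilm on cattle blood containing compound (DMSO stock diluted in blood), blood held at 37 °C and fleas at room temperature. Mortality (%) scored after 2 days.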

Test [7] has as its system adult brown dog ticks (Rhipicephalus sanguineus). The test is described as follows: Rhipicephalus sanguineus in-vitro contact test, adult brown dog ticks. As to conditions: after 48 hours, read-out: activity (efficacy: ticks dead or moribund); for pest or weed control at 100 g/ha: application rate 1 pg/cm^2 (=100 g/ha); for pest or weed control at 5 µg/cm2, 500 g/ha: application rate 5 μg/cm^2 (=500 g/ha). The method in brief:
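Efficacy (%) reflects the fraction of adult ticks dead or moribund after 48 h of contact with a dried acetone film on tube walls at 5 μg/cm^2 (from 900 ppm). Moribund status was assessed by inability to climb away from heat at 45-50° C.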

For test [8], the system named is fall armyworm larvae (Spodoptera frugiperda). The test is described as follows: Spodoptera frugiperda spray test. The note with it: 168 h, read-out: activity (mortality). In a few lines:
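Compound in acetone/DMF, diluted in water with 1000 ppm alkylarylpolyglycol ether emulsifier, sprayed on maize leaf sections. Dried leaves infested with fall armyworm larvae; % mortality after 7 days (100% = all killed, 0% = none).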

The subject of test [9] is Rhipicephalus microplus larvae (strain Parkhurst, resistant against synthetic pyrethroids). The test is described as follows: Rhipicephalus (Boophilus) microplus in-vitro contact test, larval cattle tick. The note with it: after 48 hours, read-out: activity (efficacy: larvae dead or moribund); for pest or weed control at 100 g/ha: application rate 1 pg/cm^2 (=100 g/ha); for pest or weed control at 500 g/ha: application rate 5 pg/cm^2 (=500 g/ha). In a few lines: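 Acetone solutions coated onto inner walls of glass tubes by rotation (900 ppm giving 5 μg/cm^2); after evaporation, 20-50 larvae added per tube and held at 27° C., 85% relative humidity. Efficacy read after 48 h from negative geotactic behaviour; 100% = all larvae dead or moribund.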

Test [10] has as its system green peach aphid (Myzus persicae). Nature of the test: Myzus persicae spray test. As to conditions: 120 h, after 5 days; for mortality at 100 g/ha: application rate 100 g/ha. As to the method: Myzus persicae—Spray Test
Solvent: 78.0 parts by weight acetone • 1.5 parts by weight dimethylformamide
Emulsifier: alkylarylpolyglycol ether
To produce a suitable preparation of active compound, 1 part by weight of active compound is mixed with the stated amount of solvents and is diluted with water, containing an emulsifier concentration of 1000 ppm, to the desired concentration. Further test concentrations are prepared by dilution with emulsifier containing water.
Chinese cabbage (Brassica pekinensis) leaf disks infected with all instars of the green peach aphid (Myzus persicae), are sprayed with a preparation of the active ingredient of the desired concentration.
After 5 days mortality in % is determined. 100% means all aphids have been killed and 0% means none of the aphids have been killed.

The subject of test [11] is Aedes aegypti strain MONHEIM. The test is described as follows: Aedes aegypti test (AEDSAE surface treatment & contact assay). As to conditions: surface concentration 4 mg/m^2, exposure 30 minutes, 24 hours after contact, read-out: efficacy (mortality). The method in brief: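 Compound in acetone (2 mg/ml) with 2000 ppm RME pipetted onto glazed tile and dried; adult Aedes aegypti MONHEIM exposed 30 min. Percent mortality scored 24 h after contact.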

On to `CC(NC(=O)c1cc(Cl)cc(S(C)(=O)=O)c1)c1nc(C(F)F)nn1-c1ncccn1` (stereo not drawn) [I-5], for which the pest or weed control at 5 µg/cm2 in test [1] stood at 80%. In test [2], this compound returned a mortality at 100 g/ha of 90% and a mortality at 500 g/ha of 90%. In [3], the pest or weed control at 4 pg stood at 100% and the pest or weed control at 0.02 mg was found to be 100%. Besides, the mortality at 4 ppm in test [4] stood at 100%. In [5], the pest or weed control at 100 g/ha was 100% and the pest or weed control at 500 g/ha was 100%. Besides, the mortality at 100 ppm in test [6] was 100%.

For the compound `CCS(=O)(=O)c1cc(Cl)cc(C(=O)N[C@@H](C)c2nc(C3CC3)nn2-c2ncc(Cl)cn2)c1` [I-24], the pest or weed control at 5 µg/cm2 in [1] was found to be 80%. Also, the mortality at 100 g/ha in [2] came to 100%. Moreover, in test [7], the pest or weed control at 100 g/ha turned out to be 100% and the pest or weed control at 5 µg/cm2, 500 g/ha was 80%. In test [8], the mortality at 100 g/ha amounted to 100%. For the same compound, in [3], the pest or weed control at 4 pg amounted to 100% and the pest or weed control at 0.02 mg came out at 100%. Besides, in test [4], the mortality at 4 ppm is 100%. In addition, in test [9], the pest or weed control at 100 g/ha is 100% and the pest or weed control at 500 g/ha is 100%. For the same compound, the mortality at 100 ppm in test [6] came to 90%.

Consider `COc1nc([C@H](C)NC(=O)c2cc(Cl)cc(S(C)(=O)=O)c2)n(-c2ccc(Cl)cn2)n1` [I-45], for which the pest or weed control at 5 µg/cm2 in test [1] came out at 100%. In addition, the values for the mortality at 100 g/ha in test [8] and in test [10] were 100% and 90%, respectively. Further, the pest or weed control at 4 pg in [3] was 100%. In test [4], this compound had a mortality at 4 ppm of 100%. Besides, the pest or weed control at 100 g/ha in test [9] came out at 90%; in test [5] it was 100%. Besides, the pest or weed control at 500 g/ha in test [9] stood at 90%.

Turning to `C[C@H](NC(=O)c1cc(C(F)F)cc(S(C)(=O)=O)c1)c1nc(C2CC2)nn1-c1ccc(C#N)cn1` [I-51], the pest or weed control at 5 µg/cm2 in test [1] was 90%. The mortality at 100 g/ha in [8] was found to be 100%. Also, the pest or weed control at 4 pg in [3] is 100%. In test [4], this compound yielded a mortality at 4 ppm of 100%. Also, the pest or weed control at 100 g/ha in test [9] and in [5] was 100% in each case. Further, the pest or weed control at 500 g/ha in test [9] was 100%. In [6], the mortality at 100 ppm was found to be 100%.

Turning to `C[C@H](NC(=O)c1cc(Cl)cc(S(C)(=O)=O)c1)c1nc(C2CC2)nn1-c1ncc(Cl)cn1` [I-61], the pest or weed control at 5 µg/cm2 in test [1] stood at 100%. Further, the mortality at 100 g/ha stood at 100% in test [2], 100% in [8] and 90% in [10]. Besides, the mortality at 500 g/ha was found to be 100% in test [2] and 90% in [10] (application rate 500 g/ha). Moreover, the pest or weed control at 100 g/ha came to 80% in [7], 100% in test [9] and 100% in test [5]. Moreover, the pest or weed control at 5 µg/cm2, 500 g/ha in test [7] was determined as 100%. The mortality at 4 ppm in [4] is 100%. Besides, the pest or weed control at 500 g/ha in test [9] was determined as 100%.

Take `C[C@H](NC(=O)c1cc(C#N)cc(S(C)(=O)=O)c1)c1ncnn1-c1ccccn1` [II-31]: in test [1], the pest or weed control at 5 µg/cm2 is 100%. Besides, in test [2], the mortality at 100 g/ha turned out to be 100% and the mortality at 500 g/ha stood at 100%. The pest or weed control at 100 g/ha in test [7] came to 100%. The mortality at 500 g/ha in [8] turned out to be 83%. Moreover, in test [3], the pest or weed control at 4 pg is 100% and the pest or weed control at 0.02 mg was 100%. The compound further displayed a mortality at 4 ppm in test [4] of 100%. In test [5], the pest or weed control at 100 g/ha was determined as 100% and the pest or weed control at 500 g/ha was 100%. Moreover, the mortality at 100 ppm in test [6] is 100%.

With `C[C@H](NC(=O)c1cc(Br)cc(S(C)(=O)=O)c1)c1ncnn1-c1ccc(Cl)cn1` [II-40], the pest or weed control at 5 µg/cm2 in test [1] was 100%. Moreover, the mortality at 100 g/ha in test [2] worked out at 100%. Besides, in test [7], the pest or weed control at 100 g/ha was 100% and the pest or weed control at 5 µg/cm2, 500 g/ha is 100%. For the same compound, in [8], the mortality at 100 g/ha came out at 100%. In addition, in test [3], the pest or weed control at 4 pg is 100% and the pest or weed control at 0.02 mg amounted to 100%. For the same compound, the mortality at 4 mg/m2 in [11] lay in the range of 80 to 100%. In addition, in test [9], the pest or weed control at 100 g/ha amounted to 100% and the pest or weed control at 500 g/ha was 100%. For the same compound, in test [6], the mortality at 100 ppm came to 100%.

As for `C[C@H](NC(=O)c1cc(Cl)cc(S(C)(=O)=O)c1)c1ncnn1-c1ncc(I)cn1` [II-44], the pest or weed control at 5 µg/cm2 in [1] amounted to 100%. Moreover, the mortality at 100 g/ha in [2] was 100%. In addition, the mortality at 100 g/ha in test [8] came to 100%. Further, in [3], the pest or weed control at 4 pg was determined as 100% and the pest or weed control at 0.02 mg amounted to 100%. Also, the mortality at 4 ppm in test [4] is 100%. Besides, in test [9], the pest or weed control at 100 g/ha amounted to 100% and the pest or weed control at 500 g/ha was 100%. Further, the mortality at 100 ppm in test [6] came to 100%.

Regarding `Cc1nc([C@H](C)NC(=O)c2cc(C(F)F)cc(C3CC3)c2)n(-c2ccc(C#N)cn2)n1` [II-61], the pest or weed control at 5 µg/cm2 in test [1] was determined as 100%. In addition, the mortality at 100 g/ha worked out at 100% in test [2], 83% in [8] and 90% in test [10]. For the same compound, the pest or weed control at 100 g/ha in test [7], in test [9] and in test [5] was 100% each time. The pest or weed control at 5 µg/cm2, 500 g/ha in [7] worked out at 100%. In addition, the pest or weed control at 4 pg in test [3] turned out to be 100%. The compound further came in with a mortality at 4 ppm in [4] of 100%. Also, in test [9], the pest or weed control at 500 g/ha came out at 100%.
